Reference: patent US9309225B2, “N-((1-benzyl-1H-1,2,3-triazol-4-yl)methyl)arylamide compounds as potential anticancer agents and a process for the preparation thereof” (COUNCIL OF SCIENTIFIC & INDUSTRIAL RESEARCH, priority 2013, dated 2016)

Columns and labels:
SK-MEL-2 = assay: NCI sixty human tumor cell line screen, Melanoma panel; type: cell-based; conditions: SK-MEL-2, Melanoma, NCI protocol
Experimental: (§1) The in vitro anticancer activity studies for these N-((1-benzyl-1H-1,2,3-triazol-4-yl)methyl) arylamide analogues were carried out at the National Cancer Institute, USA.
(§2) The N-((1-benzyl-1H-1,2,3-triazol-4-yl)methyl)arylamide analogues have been tested at NCI, USA, against sixty human tumor cell lines derived from nine cancer types (leukemia, non-small cell lung cancer, colon cancer, CNS cancer, melanoma cancer, ovarian cancer, renal cancer, prostate cancer and breast cancer). For these compounds results are expressed as growth inhibition (GI50) values as per NCI protocol.

SK-MEL-5 = assay: as above; type: cell-based; conditions: SK-MEL-5, Melanoma, NCI protocol
Experimental: as §1, §2

SK-MEL-28 = assay: as above; type: cell-based; conditions: SK-MEL-28, Melanoma, NCI protocol
Experimental: as §1, §2

MDA-MB-435 = assay: as above; type: cell-based; conditions: MDA-MB-435, Melanoma, NCI protocol
Experimental: as §1, §2

M14 = assay: as above; type: cell-based; conditions: NCI protocol
Experimental: as §1, §2

LOX IMVI = assay: as above; type: cell-based; conditions: NCI protocol
Experimental: as §1, §2

UACC-62 = assay: as above; type: cell-based; conditions: UACC-62, Melanoma, NCI protocol
Experimental: as §1, §2

BT-549 = assay: NCI sixty human tumor cell line screen, Breast panel; type: cell-based; conditions: BT-549, Breast, NCI protocol
Experimental: as §1, §2

T-47D = assay: as above; type: cell-based; conditions: T47D, NCI protocol
Experimental: as §1, §2

MDA-MB-31/ATCC = assay: as above; type: cell-based; conditions: NCI protocol
Experimental: as §1, §2

MDA-MB-468 = assay: as above; type: cell-based; conditions: MDA-MB-468, Breast, NCI protocol
Experimental: as §1, §2

SNB-19 = assay: NCI sixty human tumor cell line screen, CNS panel; type: cell-based; conditions: SNB-19, CNS, NCI protocol
Experimental: as §1, §2

SF-268 = assay: NCI sixty human tumor cell line screen, CNS panel; type: cell-based; conditions: SF-268, CNS, NCI protocol
Experimental: as §1, §2

U251 = assay: NCI sixty human tumor cell line screen, CNS panel; type: cell-based; conditions: U-251, NCI protocol
Experimental: as §1, §2

SF-539 = assay: NCI sixty human tumor cell line screen, CNS panel; type: cell-based; conditions: SF-539, CNS, NCI protocol
Experimental: as §1, §2

SNB-75 = assay: NCI sixty human tumor cell line screen, CNS panel; type: cell-based; conditions: SNB-75, CNS, NCI protocol
Experimental: as §1, §2

SF-295 = assay: NCI sixty human tumor cell line screen, CNS panel; type: cell-based; conditions: SF-295, CNS, NCI protocol
Experimental: as §1, §2

OVCAR-4 = assay: NCI sixty human tumor cell line screen, Ovarian panel; type: cell-based; conditions: OVCAR-4, Ovarian, NCI protocol
Experimental: as §1, §2

OVCAR-8 = assay: as above; type: cell-based; conditions: OVCAR-8, Ovarian, NCI protocol
Experimental: as §1, §2

OVCAR-3 = assay: as above; type: cell-based; conditions: OVCAR-3, Ovarian, NCI protocol
Experimental: as §1, §2

NCI/ADR-RES = assay: as above; type: cell-based; conditions: NCI protocol
Experimental: as §1, §2

SK-OV-3 = assay: as above; type: cell-based; conditions: SK-OV-3, Ovarian, NCI protocol
Experimental: as §1, §2

PC-3 = assay: NCI sixty human tumor cell line screen, Prostate panel; type: cell-based; conditions: PC-3, Prostate, NCI protocol
Experimental: as §1, §2

DU-145 = assay: as above; type: cell-based; conditions: DU-145, Prostate, NCI protocol
Experimental: as §1, §2

A549/ATCC = assay: NCI sixty human tumor cell line screen, Non-small-cell-lung panel; type: cell-based; conditions: NCI protocol
Experimental: as §1, §2

EKVX = assay: as above; type: cell-based; conditions: NCI protocol
Experimental: as §1, §2

NCI-H522 = assay: as above; type: cell-based; conditions: NCI protocol
Experimental: as §1, §2

HOP-62 = assay: as above; type: cell-based; conditions: HOP-62, Non-small-cell-lung, NCI protocol
Experimental: as §1, §2

NCI-H460 = assay: as above; type: cell-based; conditions: NCI protocol
Experimental: as §1, §2

NCI-H226 = assay: as above; type: cell-based; conditions: NCI protocol
Experimental: as §1, §2

COLO 205 = assay: NCI sixty human tumor cell line screen, Colon panel; type: cell-based; conditions: COLO 205, Colon, NCI protocol
Experimental: as §1, §2

SW-620 = assay: as above; type: cell-based; conditions: SW-620, Colon, NCI protocol
Experimental: as §1, §2

HT29 = assay: as above; type: cell-based; conditions: HT-29, NCI protocol
Experimental: as §1, §2

HCT-116 = assay: as above; type: cell-based; conditions: HCT-116, Colon, NCI protocol
Experimental: as §1, §2

KM12 = assay: as above; type: cell-based; conditions: NCI protocol
Experimental: as §1, §2

ACHN = assay: NCI sixty human tumor cell line screen, Renal panel; type: cell-based; conditions: NCI protocol
Experimental: as §1, §2

TK-10 = assay: as above; type: cell-based; conditions: TK-10, Renal, NCI protocol
Experimental: as §1, §2

RXF 393 = assay: as above; type: cell-based; conditions: RXF 393, Renal, NCI protocol
Experimental: as §1, §2

UO-31 = assay: as above; type: cell-based; conditions: UO-31, Renal, NCI protocol
Experimental: as §1, §2

A498 = assay: as above; type: cell-based; conditions: NCI protocol
Experimental: as §1, §2

CAKI-1 = assay: as above; type: cell-based; conditions: CAKI-1, Renal, NCI protocol
Experimental: as §1, §2

SN12C = assay: as above; type: cell-based; conditions: NCI protocol
Experimental: as §1, §2

CCRF-CEM = assay: NCI sixty human tumor cell line screen, Leukemia panel; type: cell-based; conditions: NCI protocol
Experimental: as §1, §2

With O=C(NCc1cn(Cc2cccc(Oc3ccccc3)c2)nn1)c1cccnc1Nc1ccccc1 [Compound 1a, N-((1-(3-Phenoxybenzyl)-1H-1,2,3-triazol-4-yl)methyl)-2-(phenylamino)nicotinamide] as the molecule, how does the GI50 (SK-MEL-2) read?
Its GI50 is 6.05 µM.

And the GI50 (SK-MEL-5)?
The GI50 was 3.89 µM.

And the GI50 (SK-MEL-28)?
The GI50 was 4.93 µM.

What about the GI50 (MDA-MB-435) of the same molecule?
Its GI50 is 2.65 µM.

What about the GI50 (M14) of the same molecule?
The GI50 was 2.86 µM.

What about the GI50 (LOX IMVI) of the same molecule?
The GI50 was 4.54 µM.

What about the GI50 (UACC-62) of the same molecule?
The GI50 was 3.02 µM.

What about the GI50 (BT-549) of the same molecule?
Its GI50 is 45.5 µM.

What about the GI50 (T-47D) of the same molecule?
The GI50 was 21.4 µM.

And the GI50 (MDA-MB-31/ATCC)?
Its GI50 is 14.5 µM.

And the GI50 (MDA-MB-468)?
Its GI50 is 51.7 µM.

And the GI50 (SNB-19)?
The GI50 was 3.27 µM.

What about the GI50 (SF-268) of the same molecule?
Its GI50 is 3.22 µM.

And the GI50 (U251)?
Its GI50 is 3.61 µM.

And the GI50 (SF-539)?
Its GI50 is 3.1 µM.

What about the GI50 (SNB-75) of the same molecule?
Its GI50 is 1.94 µM.

What about the GI50 (SF-295) of the same molecule?
The GI50 was 3.69 µM.

What about the GI50 (OVCAR-4) of the same molecule?
Its GI50 is 23.4 µM.

What about the GI50 (OVCAR-8) of the same molecule?
Its GI50 is 7.44 µM.

And the GI50 (OVCAR-3)?
Its GI50 is 17.7 µM.

What about the GI50 (NCI/ADR-RES) of the same molecule?
Its GI50 is 14 µM.

What about the GI50 (SK-OV-3) of the same molecule?
The GI50 was 5.94 µM.

What about the GI50 (PC-3) of the same molecule?
Its GI50 is 20.4 µM.

What about the GI50 (DU-145) of the same molecule?
The GI50 was 8.58 µM.

What about the melting point of the same molecule?
The melting point was 124 to 126 °C.

And the GI50 (A549/ATCC)?
The GI50 was 4.81 µM.

What about the GI50 (EKVX) of the same molecule?
The GI50 was 5.18 µM.

And the GI50 (NCI-H522)?
The GI50 was 2.11 µM.

What about the GI50 (HOP-62) of the same molecule?
The GI50 was 5.58 µM.

And the GI50 (NCI-H460)?
The GI50 was 2.85 µM.

And the GI50 (NCI-H226)?
The GI50 was 3.24 µM.

And the GI50 (COLO 205)?
Its GI50 is 2.79 µM.

What about the GI50 (SW-620) of the same molecule?
The GI50 was 3.97 µM.

What about the GI50 (HT29) of the same molecule?
The GI50 was 3.65 µM.

What about the GI50 (HCT-116) of the same molecule?
Its GI50 is 3.4 µM.

And the GI50 (KM12)?
Its GI50 is 3.63 µM.

And the GI50 (ACHN)?
Its GI50 is 11.1 µM.

What about the GI50 (TK-10) of the same molecule?
Its GI50 is 24.5 µM.

What about the GI50 (RXF 393) of the same molecule?
Its GI50 is 5.69 µM.

What about the GI50 (UO-31) of the same molecule?
Its GI50 is 86.3 µM.

And the GI50 (A498)?
Its GI50 is 13.7 µM.

And the GI50 (CAKI-1)?
The GI50 was 64.2 µM.

And the GI50 (SN12C)?
The GI50 was 52.9 µM.

And the GI50 (CCRF-CEM)?
Its GI50 is 3.34 µM.

Which results are given for O=C(NCc1cn(Cc2cccc(Oc3ccccc3)c2)nn1)c1cccnc1Nc1ccc(F)cc1 [Compound 1b, 2-(4-Fluorophenylamino)-N-((1-(3-phenoxybenzyl)-1H-1,2,3-triazol4-yl)methyl)nicotinamide]?
GI50 (SK-MEL-2): 34.2 µM; GI50 (SK-MEL-5): 4.48 µM; GI50 (SK-MEL-28): 7.98 µM; GI50 (MDA-MB-435): 2.79 µM; GI50 (M14): 13.7 µM; GI50 (LOX IMVI): 61.3 µM; GI50 (UACC-62): 6.51 µM; GI50 (BT-549): 4.58 µM; GI50 (T-47D): 4.03 µM; GI50 (MDA-MB-31/ATCC): 3.09 µM; GI50 (MDA-MB-468): 2.32 µM; GI50 (SNB-19): 20.7 µM; GI50 (SF-268): 2.1 µM; GI50 (U251): 7.12 µM; GI50 (SF-539): 15.1 µM; GI50 (SNB-75): 3.81 µM; GI50 (SF-295): 5.66 µM; GI50 (OVCAR-4): 5.19 µM; GI50 (OVCAR-8): 3.72 µM; GI50 (OVCAR-3): 2.98 µM; GI50 (NCI/ADR-RES): 2.12 µM; GI50 (SK-OV-3): 3.11 µM; GI50 (PC-3): 3.86 µM; GI50 (DU-145): 3.76 µM; melting point: 160 to 162 °C; GI50 (A549/ATCC): 6.11 µM; GI50 (EKVX): 25.3 µM; GI50 (NCI-H522): 10.8 µM; GI50 (HOP-62): 60.2 µM; GI50 (NCI-H460): 5.25 µM; GI50 (NCI-H226): 38.6 µM; GI50 (COLO 205): 6.22 µM; GI50 (SW-620): 6.58 µM; GI50 (HT29): 5.6 µM; GI50 (HCT-116): 5.02 µM; GI50 (KM12): 5.61 µM; GI50 (ACHN): 4.79 µM; GI50 (TK-10): 4.59 µM; GI50 (RXF 393): 2.59 µM; GI50 (UO-31): 3 µM; GI50 (A498): 2.35 µM; GI50 (CAKI-1): 3.41 µM; GI50 (SN12C): 4.75 µM
